Oc1cc(O)c2cc1Cc1cc(c(O)cc1O)Cc1cc(c(O)cc1O)Cc1cc(c(O)cc1O)C2
in water
Conditions	solubility (mole fraction)
278.15 K	3.22e-06
283.15 K	4.29e-06
288.15 K	4.86e-06
293.15 K	6.26e-06
298.15 K	6.59e-06
303.15 K	7.16e-06
308.15 K	7.68e-06

O=C1N2CN3C(=O)N4CN5C(=O)N6CN7C(=O)N8CN9C(=O)N%10CN%11C(=O)N%12CN1C1C2N2CN%13C(=O)N(CN%14C(=O)N(CN%15C(=O)N(CN%16C(=O)N(CN%17C(=O)N(CN1C2=O)C%12C%11%17)C%10C9%16)C8C7%15)C6C5%14)C4C3%13 (centres undefined)
in water
Conditions	solubility (mole fraction)
293.15 K	0.00231
303.15 K	0.0027
313.15 K	0.00336
323.15 K	0.00403
333.15 K	0.00481
343.15 K	0.00573
353.15 K	0.00662

CCC1=C(C)CN(C(=O)NCCc2ccc(S(=O)(=O)NC(=O)NC3CCC(C)CC3)cc2)C1=O (centres undefined)
in DMAc
Conditions	solubility (mole fraction)
278.15 K	0.0106
283.15 K	0.0124
288.15 K	0.0147
293.15 K	0.017
298.15 K	0.0199
303.15 K	0.0227
308.15 K	0.0259
313.15 K	0.0298
318.15 K	0.0343

O=C(O)CNCP(=O)(O)O
in water
Conditions	solubility (mole fraction)
293.67 K	0.00112
302.65 K	0.0014
311.95 K	0.00174
317.15 K	0.00202
322.15 K	0.00226
327 K	0.0025
332.35 K	0.00285

O=C1NC(=O)C(c2ccccc2)(c2ccccc2)N1
solubility (mole fraction)
Conditions	293.15 K	298.2 K	303.2 K	308.2 K	313.15 K	313.2 K
in NMP	0.119	–	–	–	0.116	–
in transcutol	–	0.00133	0.00144	0.00151	–	0.00166
in water	9.7e-07	1.51e-06	1.72e-06	1.88e-06	1.91e-06	2.08e-06

Cc1ccccc1C(=O)O
in cyclohexane
Conditions	solubility (mole fraction)
295.45 K	0.0146
304.95 K	0.0279
316.65 K	0.0515
319.4 K	0.0615
325.2 K	0.0885
329.35 K	0.106
333.45 K	0.138
338.15 K	0.185

C(=N\Nc1ccccc1)/c1ccco1
Conditions	solubility (mole fraction)
in water, 298.15 K	5.73e-07

C(=N\Nc1ccccc1)/c1ccc[nH]1
Conditions	solubility (mole fraction)
in water, 298.15 K	5.86e-07

O=C(C(=O)c1ccccc1)c1ccccc1
298.15 K
Conditions	solubility (mole fraction)
in 2,2,4-trimethylpentane	0.00589
in 4-methyl-2-pentanol	0.0128
in cyclohexane	0.0107
in dibutyl ether	0.0335
in isobutanol	0.00969
in isopentanol	0.0128
in isopropanol	0.00831
in methylcyclohexane	0.0113
in n-butanol	0.0131
in n-heptane	0.00656
in n-hexane	0.00575
in n-octane	0.00724
in n-octanol	0.0169
in n-pentanol	0.015
in n-propanol	0.0118
in sec-butanol	0.011

O=c1[nH]cc(Br)c(=O)[nH]1
Conditions	solubility (mole fraction)
in water, 298.15 K	0.000272

Source: BigSolDB 2.1
